The supplement of paper PMC5908809

What was measured:
[1] = system: normal NK cells expanded with K562-aAPC; assay: percent inhibition of viability; higher = more inhibition; settings: 72 h, IL-2 2.5 ng/mL
Description: (§1)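 Drug sensitivity and resistance testing on K562-aAPC-expanded normal NK cells: 5 concentrations (10-fold steps over a 10,000-fold range), 72 h at 37 °C, viability by CellTiter-Glo normalised to DMSO and benzethonium chloride controls; DSS from the fitted curve.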

DERL-7 (IL-2 2.5 ng/mL) [2] = assay: as above; settings: 72 h
IMC-1 (IL-2 20 ng/mL) [3] = assay: as above; settings: 72 h
KAI3 (IL-2 2.5 ng/mL) [4] = assay: as above; settings: 72 h
KHYG-1 (IL-2 2.5 ng/mL) [5] = assay: as above; settings: 72 h
NK-92 (IL-2 2.5 ng/mL) [6] = assay: as above; settings: 72 h
NK-YS (IL-2 2.5 ng/mL) [7] = assay: as above; settings: 72 h
NKL (IL-2 2.5 ng/mL) [8] = assay: as above; settings: 72 h
SNK-6 (IL-2 2.5 ng/mL) [9] = assay: as above; settings: 72 h
YT (IL-2 2.5 ng/mL) [10] = assay: as above; settings: 72 h
[11] = system: normal primary NK cells, pool 1 (3 donors) (IL-2 2.5 ng/mL); assay: as above; settings: 72 h
[12] = system: normal primary NK cells, pool 1 (3 donors), resting (IL-2 0 ng/mL); assay: as above; settings: 72 h
[13] = system: normal primary NK cells, pool 2 (3 donors) (IL-2 2.5 ng/mL); assay: as above; settings: 72 h
[14] = system: normal primary NK cells, pool 3 (3 donors) (IL-2 2.5 ng/mL); assay: as above; settings: 72 h
[15] = system: normal NK cells expanded with K562-aAPC; assay: drug sensitivity score (DSS) (DSS units); higher = more sensitive; extreme values may be limits of the assay; settings: 72 h; IL-2 2.5 ng/mL
Description: as §1

DERL-7 (IL-2 2.5 ng/mL) [16] = assay: as above; settings: 72 h
IMC-1 (IL-2 20 ng/mL) [17] = assay: as above; settings: 72 h
KAI3 (IL-2 2.5 ng/mL) [18] = assay: as above; settings: 72 h
KHYG-1 (IL-2 2.5 ng/mL) [19] = assay: as above; settings: 72 h
NK-92 (IL-2 2.5 ng/mL) [20] = assay: as above; settings: 72 h
NK-YS (IL-2 2.5 ng/mL) [21] = assay: as above; settings: 72 h
NKL (IL-2 2.5 ng/mL) [22] = assay: as above; settings: 72 h
SNK-6 (IL-2 2.5 ng/mL) [23] = assay: as above; settings: 72 h
YT (IL-2 2.5 ng/mL) [24] = assay: as above; settings: 72 h
[25] = system: normal primary NK cells, pool 1 (3 donors) (IL-2 2.5 ng/mL); assay: as above; settings: 72 h
[26] = system: normal primary NK cells, pool 1 (3 donors), resting (IL-2 0 ng/mL); assay: as above; settings: 72 h
[27] = system: normal primary NK cells, pool 2 (3 donors) (IL-2 2.5 ng/mL); assay: as above; settings: 72 h
[28] = system: normal primary NK cells, pool 3 (3 donors) (IL-2 2.5 ng/mL); assay: as above; settings: 72 h

Cc1c(NC(=O)OC[C@@H]2COCCN2)cn2ncnc(Nc3ccc4c(cnn4Cc4cccc(F)c4)c3)c12 (max concentration tested 10000 nM)
percent inhibition of viability [%]
Settings | 1 nM | 10 nM | 100 nM | 1000 nM | 10000 nM
DERL-7 (IL-2 2.5 ng/mL) [2] | -2.53 | -0.41 | -0.2 | 2.93 | 52.5
IMC-1 (IL-2 20 ng/mL) [3] | -5.26 | -0.97 | 0.8 | 4.51 | 43.6
KAI3 (IL-2 2.5 ng/mL) [4] | 1.51 | 4.45 | 5.56 | -0.23 | 65.3
KHYG-1 (IL-2 2.5 ng/mL) [5] | 4.55 | 7.44 | 7.32 | 8.8 | 77.5
NK-92 (IL-2 2.5 ng/mL) [6] | -5.71 | -0.55 | 7.56 | 7.66 | 105
NK-YS (IL-2 2.5 ng/mL) [7] | 1.47 | 0.48 | 3.03 | 2.38 | 38.8
NKL (IL-2 2.5 ng/mL) [8] | -10.7 | 1.23 | -8.56 | 0.45 | 55.9
SNK-6 (IL-2 2.5 ng/mL) [9] | -6.28 | -7.55 | -9.76 | -27.8 | 33.1
YT (IL-2 2.5 ng/mL) [10] | 2.59 | 1.59 | 4.74 | 2.33 | 47.5
[1] | 6.16 | 1.61 | -2.01 | 5.74 | 30.1
[11] | 1.48 | -6.08 | -9.4 | -15 | 34.3
[12] | 4.93 | -4.06 | 4.13 | -12.6 | 58.4
[13] | -13 | -2.17 | -2.11 | 0.64 | 57.2
[14] | -5.86 | 2.09 | 3.41 | -2.09 | 44

Settings | drug sensitivity score
DERL-7 (IL-2 2.5 ng/mL) [16] | 3.21
IMC-1 (IL-2 20 ng/mL) [17] | 2.97
KAI3 (IL-2 2.5 ng/mL) [18] | 3.56
KHYG-1 (IL-2 2.5 ng/mL) [19] | 5.75
NK-92 (IL-2 2.5 ng/mL) [20] | 7.04
NK-YS (IL-2 2.5 ng/mL) [21] | 2.25
NKL (IL-2 2.5 ng/mL) [22] | 3.06
SNK-6 (IL-2 2.5 ng/mL) [23] | 0.86
YT (IL-2 2.5 ng/mL) [24] | 2.8
[15] | 2.22
[25] | 1.06
[26] | 2.48
[27] | 3.16
[28] | 2.07

Cc1nc(Nc2n[nH]c3c2CN(C(=O)N[C@H](CN(C)C)c2ccccc2)C3(C)C)c2sccc2n1 (max concentration tested 10000 nM)
percent inhibition of viability [%]
Settings | 1 nM | 10 nM | 100 nM | 1000 nM | 10000 nM
DERL-7 (IL-2 2.5 ng/mL) [2] | 5.19 | 43.4 | 60.3 | 59.5 | 100
IMC-1 (IL-2 20 ng/mL) [3] | -7.89 | 94 | 100 | 100 | 101
KAI3 (IL-2 2.5 ng/mL) [4] | 9.34 | 25.2 | 38.2 | 52.7 | 103
KHYG-1 (IL-2 2.5 ng/mL) [5] | 3.44 | 16.8 | 81.4 | 96.4 | 106
NK-92 (IL-2 2.5 ng/mL) [6] | 2.81 | 5.29 | 27.2 | 59.5 | 105
NK-YS (IL-2 2.5 ng/mL) [7] | 0.35 | 42.8 | 54.1 | 57.7 | 101
NKL (IL-2 2.5 ng/mL) [8] | -10.4 | 9.99 | 31.3 | 50.3 | 103
SNK-6 (IL-2 2.5 ng/mL) [9] | -2.61 | 16.3 | 16 | 31.2 | 87.1
YT (IL-2 2.5 ng/mL) [10] | 0.99 | 13.6 | 41.7 | 56 | 104
[1] | 4.54 | 6.07 | 22.4 | 41.8 | 101
[11] | 5.07 | 3.65 | 18.4 | 34.4 | 98.8
[12] | 5.47 | -19.5 | 8.53 | 35.1 | 92.2
[13] | -7.71 | 9.61 | 27.4 | 49.4 | 98.1
[14] | -6.36 | 3.67 | 21.6 | 29.7 | 98.9

Settings | drug sensitivity score
DERL-7 (IL-2 2.5 ng/mL) [16] | 24.7
IMC-1 (IL-2 20 ng/mL) [17] | 41.6
KAI3 (IL-2 2.5 ng/mL) [18] | 18.1
KHYG-1 (IL-2 2.5 ng/mL) [19] | 29.5
NK-92 (IL-2 2.5 ng/mL) [20] | 15.2
NK-YS (IL-2 2.5 ng/mL) [21] | 23
NKL (IL-2 2.5 ng/mL) [22] | 14.4
SNK-6 (IL-2 2.5 ng/mL) [23] | 8.41
YT (IL-2 2.5 ng/mL) [24] | 17.5
[15] | 11.5
[25] | 9.34
[26] | 9.24
[27] | 13.5
[28] | 8.84
